Measurements reported in US11958815B1, “N′-(2-(5-phenyl-1,3,4-oxadiazol-2-ylthio)acetoxy)-2-naphthimidamide as antimicrobial compound” (KING FAISAL UNIVERSITY, priority 2023, dated 2024).

Assays:
Aspergillus flavus = experiment: Agar plate disc-diffusion, antifungal activity by inhibition zone; conditions: Sabouraud's dextrose agar, 37° C., 72 hours, DMSO zone subtracted
[1] = tested on: Chrysosporium keratinophilum; experiment: as above; conditions: Sabouraud's dextrose agar, 37° C., 72 hours, DMSO zone subtracted
Bacillus cereus = experiment: Agar plate disc-diffusion, antibacterial activity by inhibition zone; conditions: nutrient agar, 37° C., 48 hours, DMSO zone subtracted
Staphylococcus aureus = experiment: as above; conditions: nutrient agar, 37° C., 48 hours, DMSO zone subtracted
Pseudomonas aeruginosa = experiment: as above; conditions: nutrient agar, 37° C., 48 hours, DMSO zone subtracted
Escherichia coli = experiment: as above; conditions: nutrient agar, 37° C., 48 hours, DMSO zone subtracted
[2] = A = concentration of comp. = 10,000 μL
[3] = B = concentration of comp. = 30.000 μL
[4] = C = concentration of comp. = 50,000 μL

In the case of `N/C(=N\OC(=O)CSc1nnc(-c2ccccc2)o1)c1ccc2ccccc2c1` [Comp 3, N′-(2-(5-phenyl-1,3,4-oxadiazol-2-ylthio)acetoxy)-2-naphthimidamide], the “inhibition zone, Aspergillus flavus” value (Aspergillus flavus; [2]) is reported as 26 mm, the “inhibition zone, Aspergillus flavus” value (Aspergillus flavus; [3]) is reported as 29 mm and the “inhibition zone, Aspergillus flavus” value (Aspergillus flavus; [4]) is reported as 39 mm. The “inhibition zone, Chrysosporium keratinophilum” value [1, 2] was 31 mm, the “inhibition zone, Chrysosporium keratinophilum” value [1, 3] was 39 mm and the “inhibition zone, Chrysosporium keratinophilum” value [1, 4] was 45 mm. For the same compound, the “inhibition zone, Bacillus Cereus” value (Bacillus cereus; [2]) was 28 mm, the “inhibition zone, Bacillus Cereus” value (Bacillus cereus; [3]) was 32 mm and the “inhibition zone, Bacillus Cereus” value (Bacillus cereus; [4]) was 40 mm. The “inhibition zone, Staphylococcus aureus” value (Staphylococcus aureus; [2]) was 25 mm, the “inhibition zone, Staphylococcus aureus” value (Staphylococcus aureus; [3]) was 31 mm and the “inhibition zone, Staphylococcus aureus” value (Staphylococcus aureus; [4]) was 40 mm. For the same compound, the “inhibition zone, Pseudomonas aeruginosa” value (Pseudomonas aeruginosa; [2]) was 27 mm, the “inhibition zone, Pseudomonas aeruginosa” value (Pseudomonas aeruginosa; [3]) was 34 mm and the “inhibition zone, Pseudomonas aeruginosa” value (Pseudomonas aeruginosa; [4]) was 40 mm. For the same compound, the “inhibition zone, Escherichia coli” value (Escherichia coli; [2]) was 31 mm, the “inhibition zone, Escherichia coli” value (Escherichia coli; [3]) was 39 mm and the “inhibition zone, Escherichia coli” value (Escherichia coli; [4]) was 48 mm.
